Laboratory results: US20050008596A1, “Composition containing an oxidation-sensitive active principle and a polyisobutylene polymer” (L'OREAL, priority 2003, published 2005)

Experiment: Accelerated storage test: decomposition of ascorbic acid in the composition after two months at 45° C., HPLC
Format: physicochemical
Conditions: formulated in the presence of Lubrizol 5603, compared with conventional emulsifier; even in the presence of oxygen
Method: The aim of this test is to study the decomposition of an oxidation-sensitive hydrophilic active principle in a composition, after storage for two months at 45° C.
The degree of decomposition measured is given by the ratio: (C0-C2 months)/C0 with C0 being the concentration of ascorbic acid at t=0 and C2 months being the concentration of ascorbic acid at t=2 months.
The concentration of ascorbic acid is determined by the HPLC technique (Merck LaChrom system). The analytical conditions are as follows: • Column: Lichrosphere 100 RP18 (250 mm) • Eluant: 0.1M phosphate buffer, pH 2.1 • Flow rate: 1 ml/min • Detection at 257 nm. • Dilution of the sample such that the concentration of ascorbic acid is between 0.05 and 1 mg/ml.
The test was carried out with the composition Example 1, and with the composition of Comparative Example 1 which contains, instead of the polymer according to the invention, a conventionally used emulsifier, cyclopentasiloxane and PEG/PPG-18/18 dimethicone.

Increase of stability of the ascorbic acid: 50%
SMILES: O=C1O[C@H]([C@@H](O)CO)C(O)=C1O [ascorbic acid]
